How the values were obtained:
ovalbumin = experiment: anaphylactic reaction of guinea pigs sensitized with ovalbumin, aerosol of ovalbumin; format: in vivo; settings: 30 mg/kg in the stomach
Procedure: (§1) The pharmacological activity of said compounds has been tested in various experiments in isolated organs and on intact narcotized and non-narcotizedanimals. The tests were aimed at establishing and quantitatively determining antihistaminic, antiserotonin, cholinolytic, and also broncholytic activity of the preparations. Moreover, the action of the preparations on increased permeability of the vessels, their antiexudative, antiallergic action were tested on guinea pigs, actively sensitized with ovalbumin with the administration of the antigen in the form of aerosol in effective doses. The effect of the preparations on the central nervous system, namely on the spontaneous motor activity, and also the interaction of the preparations with hypnotic and stimulating preparations, was tested.

histamine = experiment: antihistaminic and antiallergic activity compared with known preparations; settings: for certain experimental antihistaminic and antiallergic activity relative to known preparations: compared with dimedrol and diprasin-pipolfen
serotonin and histamine = experiment: time course of action on bronchoconstriction by serotonin and histamine (Koncett-Rossler method); format: in vivo, guinea pigs; settings: after intravenous injection
Description: The broncheal muscle tone was examined in intact narcotized guinea pigs by the Koncett-Rossler method.

serotonin [1] = settings: 30 mg/kg in the stomach; serotonin aerosol
[2] = pharmacological activity in experiments on isolated organs and on intact animals (overall)
Procedure: as §1

serotonin [3] = settings: known antagonist; cited from earlier work
[4] = toxicity (LD50) on various laboratory animals; format: in vivo
Procedure: The toxicity (LD50) of the preparations was determined with various methods of administration (intravenous, subcutaneous, in the stomach) on various laboratory animals.

In the case of `COc1ccccc1C(O)(c1ccccc1OC)C1CN2CCC1CC2` (centres unmarked) [(quinuclidyl-3)-di(2'-methoxyphenyl)carbinol], the “protection from anaphylactic reaction” value (ovalbumin) is reported as “actively protects” and the “certain experimental antihistaminic and antiallergic activity relative to known preparations” value (histamine) is reported as “superior”.

For `CN(C)CCOC(c1ccccc1)c1ccccc1` [Dimedrol], the onset of effect (serotonin and histamine) was “immediately” and the “persistence of the antiserotonin action” value (serotonin [1]) was 4 to 6 h.

For `OC(c1cccs1)(c1cccs1)C1CN2CCC1CC2` (centres unmarked) [(quinuclidyl-3 )-di(thienyl- 2')-carbinol], the pharmacological activity [2] was “high activity”.

In the case of `OC(c1ccccc1)(c1cccs1)C1CN2CCC1CC2` (centres unmarked) [(phenyl)-(thienyl- 2')-(quinuclidyl- 3)carbinol], the pharmacological activity [2] is reported as “high activity”.

For `CCN(CC)C(=O)[C@@H]1C=C2c3cccc4[nH]cc(c34)C[C@H]2N(C)C1` [LSD-25, diethylamide lysergic acid], the onset of effect (serotonin and histamine) is listed as “immediately” and the “activity as antagonist to serotonin” value (serotonin [3]) is listed as “one of the most active known antogonists to serotonin”.

For `OC(c1ccccc1)(C1CCCCC1)C1CN2CCC1CC2` (centres unmarked) [(phenyl)-(cyclohexyl)-(quinuclidyl- 3) -carbinol], the pharmacological activity [2] was “high activity”.

In the case of `OC(c1ccccc1)(c1ccccc1)C1CN2CCC1CC2` (centres unmarked) [(quinuclidyl-3)-diphenylcarbinol], the “times less toxic than dimedrol” value ([4]; given in the stomach) is reported as 1.5 times, the “times less toxic than dimedrol” value ([4]; given intravenously) is reported as 1.5 times and the antihistaminic activity (histamine) is reported as “high antihistaminic activity”. The “certain experimental antihistaminic and antiallergic activity relative to known preparations” value (histamine) was “superior” and the pharmacological activity [2] was “high activity”.

From patent US4038402A, “Method of effecting antihistaminic, antiserotonin and antiallergic actions” (priority 1974, dated 1977)
